Tests used:
Format in all cases: cell-based
IL-6 = assay: Pro-inflammatory IL-6 release by LPS stimulated RAW264.7 macrophages (ELISA); details: for comparative effectiveness in decreasing IL-6 secretion (in words): 5-20 μg/ml individually, 75 μg/ml mixture, LPS stimulated, FIG. 3
Protocol: The pro-inflammatory IL-6 release by RAW264.7 macrophages was assessed using the IL-6 Quantikine ELISA assay kit (R&D, Minneapolis, Minn.) according to the manufacturer's protocol. Briefly, 2×10^6 of cells were plated in 6-well plates and allowed to settle for 2-4 h, followed by incubation with different micronutrients and plant extracts (5-20 μg/ml) 24 h at 37° C. in 5% CO2 atmosphere. After the incubation period, cells were stimulated with LPS (10 ng/ml) for additional 24 h and all supernatants were collected and subjected to ELISA assay according to manufacturer's protocol. As a positive control, LPS-stimulated cells without treatment were used. All experiments were done in triplicate.
The effect of naturally-derived agents and their mixture on release of pro-inflammatory IL-6 by RAW264.7 macrophage cell line. Macrophages were pre-incubated with different micronutrients and plant extracts (5-20 μg/ml) individually and in a mixture followed by their stimulation with Lipopolysaccharide (LPS). Each column represents the mean±standard deviation (n=4).

RAW264.7 macrophages = assay: In vitro phagocytic assay (nitroblue tetrazolium (NBT) reduction test), RAW264.7 macrophages; details: 5-20 μg/ml individually, 75 μg/ml mixture, 24 h, FIG. 1A
Protocol: RAW264.7 macrophages (5×10^6 cells/well of a 96-well plate) were cultured with different micronutrients and plant extracts (5-20 μg/ml) for 24 h at 37° C. Thereafter, 20 μl C. albicans or S. mutans (5×10^7 cells/ml in PBS) suspension, and 20 μl nitroblue tetrazolium (1.5 mg/ml of NBT in PBS) were added to each well. Wells that received PBS+DMSO were used as control. Next, cells were incubated for 3 h at 37° C., the supernatant was removed, and the adherent macrophages were rinsed with RPMI 1640. The cells were air dried before 80 μl of 2M KOH and 100 μl DMSO were added to each well. The absorbance was measured at 570 nm using the microplate reader. Percentage of NBT reduction (reflecting phagocytic activity) was calculated as following equation: Phagocytic Index=(ODsample−ODcontrol)/ODcontrol.
The assay used nitroblue tetrazolium (NBT) reduction test after treatment with different individual micronutrients and plant extracts (5-20 μg/ml) and their combination for 24 h at 37° C. PI and phagocytosis was tested using C. albicans and S. mutants. Values shown are mean±standard deviation (n=4).

YAC-1 cells = assay: Cytotoxicity assay of natural killer (NK) cells toward target YAC-1 cells (MTT); details: individual compounds 5-20 μg/ml, 24 h, FIG. 2
Protocol: Cytotoxicity Assay of Natural Killer (NK) Cells were performed using splenic natural killer (as the effector cells) activity assay was carried out according as described by Yi et al. Carbohydr. Polym. 2012, 87:636-643. The splenocytes/splenic NK cells were plated into 96-well plates at a density of 1×10^7 cells/ml per well in a 50 μl volume, and stimulated with different micronutrients and plant extracts (5-20 μg/ml) for 24 h at 37° C. Then, YAC-1 cells (1×10^6 cells/ml) were added into all experimental wells (group) and complete medium only was placed in the other wells as the effector control. At the same time, complete medium (100 μl), containing only YAC-1 cells (1×10^6 cells/ml), was added into empty wells as the target control. […] The absorbance was measured at 570 nm using a microplate reader. Cytotoxicity of NK cell was expressed as Cytotoxic Index (percent lysis of target cells): CI=[ODT−(ODexp.−ODE)]/ODT×100], where ODT represents OD value of the target control, whereas ODexp. and ODE represent OD value of the experimental group and effector control, respectively.
Cytotoxicity of NK cells toward target YAC-1 cells in the presence of different micronutrients and plant extracts (5-20 μg/ml) used individually and in a combination for 24 h at 37° C. Cytotoxicity of NK cells was assessed by the MTT assay and expressed as the mean±standard deviation (n=4).

Lipopolysaccharide [LPS]
stimulation of IL-6 secretion by exposure of RAW264.7 macrophages to LPS (IL-6; LPS 10 ng/ml, 24 h, no treatment (positive control)): over 300%

O=C1O[C@H]([C@@H](O)CO)C(O)=C1O [Vitamin C]
comparative effectiveness in decreasing IL-6 secretion (in words) (IL-6): best natural compounds | comparative effectiveness in stimulating phagocytic activity of RAW264.7 macrophages (in words) (RAW264.7 macrophages): most effective individual agents

Fucoidan
comparative effectiveness on NK cell cytotoxicity (in words) (YAC-1 cells): two most effective individual compounds

O=C(O)CCCCC1CCSS1 (stereo not drawn) [Alpha lipoic acid]
comparative effectiveness in decreasing IL-6 secretion (in words) (IL-6): best natural compounds

— US10568866B1, “Composition and its use for increasing innate immune health” (priority 2018, dated 2020)
